How the values were obtained:
[1] = test system: A2780 human ovarian adenocarcinoma xenografts; test: in vivo anti-tumor activity, A2780 xenografts; set-up: species or system mice; conditions: 15 mg/kg, Day 19, positive control
Experimental: Body weights and tumor measurements were recorded three times weekly. Tumor burden (mg) was estimated from caliper measurements by the formula for the volume of a prolate ellipsoid assuming unit density as: Tumor burden (mg)=(L×W2)/2, where L and W are the respective orthogonal tumor length and width measurements (mm). The primary endpoints used to evaluate efficacy were study day 26 T/C values, complete and partial tumor responses, tumor growth delay, and the number of tumor-free survivors at the end of the study. T/C values were calculated by dividing the treated median tumor mass by the median control tumor mass and multiplying by 100. The USA National Cancer Institute (NCI) considers a compound which produces a % T/C value of 42 of less is active. Complete response (CR) is defined as a decrease in tumor mass to an undetectable size (<50 mg), and a partial response (PR) is defined as a ≧50% decrease in tumor mass from that at first treatment. […] Tumor Growth Delay (T-C) was also used to quantify efficacy. Tumor growth delay for this experiment was expressed as a T-C value, where T and C are the median times in days required for the treatment and control group tumors, respectively, to grow to a selected evaluation size, 750 mg. […]
Test animals were implanted subcutaneously on day 0 with 30 to 60 mg A2780 tumor fragments. […] Tumor mass on day 19 was analyzed by a single factor ANOVA. […]

[2] = test system: A375 human melanoma xenografts; test: in vivo anti-tumor activity, A375 xenografts; set-up: species or system mice; conditions: 30 mg/kg
Experimental: The in vivo anti-tumor activity of CP5017808 was evaluated against A375 human melanoma xenografts and ovarian carcinoma.
CP5017808 was dissolved with heat and sonication in a 1:1 mixture of absolute ethanol and CREMAPHOR™ equivalent to 20% of the final desired volume, and then brought to a final volume with 40% hydroxypropyl-β-cyclodextin in water. CP5017808 produced a fine suspension with a pH of 6.2.
Female NCr nu/nu mice (Charles River Laboratory) were used for the study. They were 5-6 weeks old on Day 1 of the experiment. The animals were fed Rodent Diet 5010 (LabDiet™) and water ad libitum. The mice were housed in Thoren™ microisolator caging with Bed-O'Cobs™ bedding. […]
Body weights and tumor measurements were recorded three times weekly. […] T/C values were calculated by dividing the treated median tumor mass by the median control tumor mass and multiplying by 100. […] Tumor Growth Delay (T-C) was also used to quantify efficacy. Tumor growth delay for this experiment was expressed as a T-C value, where T and C are the median times in days required for the treatment and control group tumors, respectively, to grow to a selected evaluation size, 750 mg.
The time for individual tumors to reach evaluation size, time to fold growth, and tumor volume doubling times were analyzed by a single factor ANOVA. […]

| Structure (SMILES) | % T/C value [1] | tumor growth delay ([2]; evaluation size 750 mg) | % T/C value ([2]; study day 26, positive control) |
| --- | --- | --- | --- |
| CC(=O)O[C@H]1C(=O)[C@@]2(C)[C@H]([C@H](OC(=O)c3ccccc3)[C@]3(O)C[C@H](OC(=O)[C@H](O)[C@@H](NC(=O)c4ccccc4)c4ccccc4)C(C)=C1C3(C)C)[C@]1(OC(C)=O)CO[C@@H]1C[C@@H]2O [Taxol®] | 15% | – | – |
| CC(=O)O[C@@]12CO[C@@H]1C[C@H](O)[C@@]1(C)C(=O)[C@H](O)C3=C(C)[C@@H](OC(=O)[C@H](O)[C@@H](NC(=O)OC(C)(C)C)c4ccccc4)C[C@@](O)([C@@H](OC(=O)c4ccccc4)[C@H]21)C3(C)C [docetaxel] | – | 10 days | 32% |
